Measured values as given in patent US20110045101A1, “FUNGICIDAL SUBSTITUTED AZOLES” (E.I. Du Pont De Nemours and Company, priority 2009, published 2011).
Marks after values point to notes of the source that are not given here.

Assays:
Format in all cases: in vivo
Details in all cases: 100 = 100% disease control
Botrytis cinerea = assay: Test C: tomato Botrytis on tomato seedlings, sprayed the day before inoculation, visual disease rating
Outline: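 Tomato seedlings were sprayed until run-off with test suspensions in acetone/water (50/50) carrying 250 ppm polyhydric alcohol ester surfactant. Standard dose was 200 ppm, with 40 ppm for marked entries.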

Alternaria solani = assay: Test D: tomato early blight, sprayed the day before inoculation, visual disease rating
Outline: (§1)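 200 ppm run-off spray (500 g/ha equivalent); * = 40 ppm. Vehicle: acetone/water 50/50, 250 ppm Trem® 014.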

Septoria nodorum = assay: Test F: wheat glume blotch on wheat seedlings, sprayed the day before inoculation, visual disease rating
Outline: as §1

Septoria tritici = assay: Test G: wheat leaf blotch on wheat seedlings, sprayed the day before inoculation, visual disease rating
Outline: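 Seedlings receive a protective spray of test suspension in acetone/water carrying 250 ppm surfactant, mostly at 200 ppm and at 40 ppm where marked. They are inoculated the next day, kept saturated at 24° C for 48 h, then held at 20° C for 19 days before visual scoring.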

[1] = system: Puccinia recondita f. sp. tritici; assay: Test I: wheat leaf rust on wheat seedlings, sprayed the day before inoculation, visual disease rating
Outline: as §1

[2] = system: Erysiphe graminis f. sp. tritici; assay: Test J: wheat powdery mildew on wheat seedlings, sprayed the day before inoculation, visual disease rating
Outline: as §1

[3] = 40 ppm (marked *), 0 = no control
[4] = 200 ppm, 0 = no control relative to controls

Row | SMILES | Test C disease control rating (Botrytis cinerea; [4]) [%] | Test D disease control rating (Alternaria solani; [4]) [%] | Test F disease control rating (Septoria nodorum; [4]) [%] | Test G disease control rating (Septoria tritici; [4]) [%] | Test I disease control rating [1, 4] [%] | Test J disease control rating [2, 4] [%] | other results
1 | COc1cc(F)c(-n2cnc(Cl)c2-c2ccc(Cl)cc2)c(F)c1 [compound 277] | – | – | – | – | – | – | Test C disease control rating (Botrytis cinerea; [3]): 99* %; Test D disease control rating (Alternaria solani; [3]): 0* %; Test F disease control rating (Septoria nodorum; [3]): 0* %; Test G disease control rating (Septoria tritici; [3]): 89* %; Test I disease control rating [1, 3]: 88* %; Test J disease control rating [2, 3]: 94* %
2 | COc1ccc(F)c(-c2c(Cl)nc(Br)n2-c2cccc(F)c2)c1F [compound 278] | – | – | – | – | – | – | Test C disease control rating (Botrytis cinerea; 200 ppm, 0 = no control): 99%; Test D disease control rating (Alternaria solani; 200 ppm, 0 = no control): 100%; Test F disease control rating (Septoria nodorum; 200 ppm, 0 = no control): 100%; Test G disease control rating (Septoria tritici; 200 ppm, 0 = no control): 95%; Test I disease control rating ([1]; 200 ppm, 0 = no control): 100%; Test J disease control rating ([2]; 200 ppm, 0 = no control): 100%
3 | COc1ccc(F)c(-c2c(Cl)nc(Cl)n2-c2cccc(F)c2)c1F [compound 279] | – | – | – | – | – | – | Test C disease control rating (Botrytis cinerea; 200 ppm, 0 = no control): 100%; Test D disease control rating (Alternaria solani; 200 ppm, 0 = no control): 100%; Test F disease control rating (Septoria nodorum; 200 ppm, 0 = no control): 100%; Test G disease control rating (Septoria tritici; 200 ppm, 0 = no control): 93%; Test I disease control rating ([1]; 200 ppm, 0 = no control): 100%; Test J disease control rating ([2]; 200 ppm, 0 = no control): 100%
4 | COc1ccc(F)c(-c2c(Cl)nc(Br)n2-c2ccc(C)cc2)c1F [compound 281] | – | – | – | – | – | – | Test C disease control rating (Botrytis cinerea; 200 ppm, 0 = no control): 100%; Test D disease control rating (Alternaria solani; 200 ppm, 0 = no control): 100%; Test F disease control rating (Septoria nodorum; 200 ppm, 0 = no control): 97%; Test G disease control rating (Septoria tritici; 200 ppm, 0 = no control): 96%; Test I disease control rating ([1]; 200 ppm, 0 = no control): 100%; Test J disease control rating ([2]; 200 ppm, 0 = no control): 100%
5 | COc1cc(F)c(-n2c(Cl)nc(Cl)c2-c2ccc(Cl)cc2)c(F)c1 [compound 297] | – | – | – | – | – | – | Test C disease control rating (Botrytis cinerea; [3]): 99* %; Test D disease control rating (Alternaria solani; [3]): 100* %; Test F disease control rating (Septoria nodorum; [3]): 99* %; Test G disease control rating (Septoria tritici; [3]): 94* %; Test I disease control rating [1, 3]: 99* %; Test J disease control rating [2, 3]: 100* %
6 | Cc1nc(C)n(-c2ccc(Cl)cc2)c1-c1c(F)ccc(F)c1Cl [compound 388] | 99 | 100 | 60 | 99 | 100 | 100 | –
7 | Cc1nc(Cl)n(-c2ccc(Cl)c(F)c2)c1-c1c(F)ccc(F)c1F [compound 389] | 98 | 100 | 0 | 91 | 99 | 98 | –
8 | COc1cc(F)c(-c2c(Cl)nc(C)n2-c2ccccc2)c(F)c1C [compound 439] | 97 | 100 | 95 | 94 | 100 | 100 | –
9 | Fc1ccc(F)c(-c2c(Cl)nc(Br)n2-c2ccc(Cl)c(Cl)c2)c1F [compound 440] | 99 | 100 | 98 | 95 | 98 | 99 | –
10 | CCc1ccc(-n2c(Br)nc(Cl)c2-c2c(F)ccc(OC)c2F)cc1 [compound 441] | 97 | 99 | 0 | 97 | 97 | 99 | –
11 | CCc1ccc(-n2c(Cl)nc(Cl)c2-c2c(F)ccc(OC)c2F)cc1 [compound 442] | 99 | 99 | 0 | 95 | 99 | 100 | –
12 | COc1ccc(F)c(-c2c(Cl)nc(Br)n2-c2ccc(I)cc2)c1F [compound 443] | 99 | 99 | 99 | 97 | 89 | 100 | –
13 | COc1ccc(F)c(-c2c(Cl)nc(Cl)n2-c2ccc(I)cc2)c1F [compound 444] | 99 | 100 | 100 | 98 | 95 | 99 | –
14 | Cc1nc(Br)n(-c2c(F)cc(F)cc2F)c1-c1ccc(Cl)cc1 [compound 445] | – | – | – | 95 | – | – | Test C disease control rating (Botrytis cinerea; [3]): 97* %; Test D disease control rating (Alternaria solani; [3]): 100* %; Test F disease control rating (Septoria nodorum; [3]): 92* %; Test I disease control rating [1, 3]: 97* %; Test J disease control rating [2, 3]: 98* %
15 | Cc1nc(Cl)n(-c2c(F)cc(F)cc2F)c1-c1ccc(Cl)cc1 [compound 446] | – | – | – | – | – | – | Test C disease control rating (Botrytis cinerea; [3]): 96* %; Test D disease control rating (Alternaria solani; [3]): 100* %; Test F disease control rating (Septoria nodorum; [3]): 0* %; Test G disease control rating (Septoria tritici; [3]): 95* %; Test I disease control rating [1, 3]: 68* %; Test J disease control rating [2, 3]: 91* %
16 | Cc1ncn(-c2c(F)cc(F)cc2F)c1-c1ccc(Cl)cc1 [compound 447] | 94 | 80 | 0 | 30 | 0 | 81 | –
17 | COc1ccc(F)c(-c2c(Cl)ncn2-c2ccc(I)cc2)c1F [compound 448] | 97 | 100 | 89 | 98 | 95 | 98 | –
18 | COc1ccc(F)c(-c2c(Br)ncn2-c2ccc(Cl)cc2)c1F [compound 449] | 99 | 100 | 99 | 97 | 99 | 100 | –
19 | Cc1c(CCl)sc(-c2cnc(Cl)n2-c2ccc(Cl)cc2)c1Cl [compound 451] | 0 | 0 | 0 | 82 | 19 | 0 | –
20 | Cc1cc(-c2cnc(Cl)n2-c2ccc(Cl)cc2)sc1CCl [compound 452] | 55 | 0 | 0 | 86 | 86 | 76 | –
21 | COc1cc(F)c(-c2c(Cl)nc(Cl)n2-c2cccc(Cl)c2)c(F)c1 [compound 453] | 99 | 100 | – | 93 | 100 | 100 | Test F disease control rating (Septoria nodorum; 40 ppm (marked *)): 90* %
22 | COc1cc(F)c(-c2c(Cl)nc(Cl)n2-c2ccc(F)c(F)c2)c(F)c1 [compound 454] | 77 | 100 | 33 | 93 | 100 | 100 | –
23 | Fc1cc(-n2c(Cl)nc(Cl)c2-c2ccncc2F)ccc1Cl [compound 455] | 99 | 95 | 0 | 95 | 99 | 68 | –
